Data as given in PubChem BioAssay (NCI).
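48-hour exposure; five concentrations; linearly interpolated endpoints. At the GI50, growth is halved. TGI is the concentration that stops growth completely.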

What was measured:
Test in all cases: DTP human tumour cell line panel, 48 h
HL-60(TB) leukemia = test system: HL-60(TB) leukemia
MOLT-4 leukemia = test system: MOLT-4 leukemia
BT-549 breast = test system: BT-549 breast
PC-3 prostate = test system: PC-3 prostate
A549 NSCLC = test system: A549 NSCLC
SF-268 CNS = test system: SF-268 CNS
SNB-19 CNS = test system: SNB-19 CNS
M14 melanoma = test system: M14 melanoma
SK-MEL-5 melanoma = test system: SK-MEL-5 melanoma
IGROV1 ovarian = test system: IGROV1 ovarian
NCI-H522 lung = test system: NCI-H522 lung
RXF 393 renal = test system: RXF 393 renal
OVCAR-3 ovarian = test system: OVCAR-3 ovarian
MDA-MB-468 breast = test system: MDA-MB-468 breast
HOP-62 NSCLC = test system: HOP-62 NSCLC
NCI/ADR-RES ovarian = test system: NCI/ADR-RES ovarian
UO-31 renal = test system: UO-31 renal
SW-620 colon = test system: SW-620 colon
MDA-MB-231 breast = test system: MDA-MB-231 breast
OVCAR-5 ovarian = test system: OVCAR-5 ovarian
A498 renal = test system: A498 renal
NCI-H226 lung = test system: NCI-H226 lung
TK-10 renal = test system: TK-10 renal
SN12C renal = test system: SN12C renal
CCRF-CEM leukemia = test system: CCRF-CEM leukemia
SNB-75 CNS = test system: SNB-75 CNS
OVCAR-8 ovarian = test system: OVCAR-8 ovarian
SK-MEL-2 melanoma = test system: SK-MEL-2 melanoma
786-0 renal = test system: 786-0 renal
OVCAR-4 ovarian = test system: OVCAR-4 ovarian
HS 578T breast = test system: HS 578T breast
RPMI-8226 leukemia = test system: RPMI-8226 leukemia
HT29 colon = test system: HT29 colon
SF-295 CNS = test system: SF-295 CNS
SF-539 CNS = test system: SF-539 CNS
SK-MEL-28 melanoma = test system: SK-MEL-28 melanoma
SK-OV-3 ovarian = test system: SK-OV-3 ovarian
MDA-MB-435 = test system: MDA-MB-435
NCI-H23 lung = test system: NCI-H23 lung
UACC-62 melanoma = test system: UACC-62 melanoma
DU-145 prostate = test system: DU-145 prostate
ACHN renal = test system: ACHN renal
CAKI-1 renal = test system: CAKI-1 renal
HCT-116 colon = test system: HCT-116 colon
U251 CNS = test system: U251 CNS
HCT-15 colon = test system: HCT-15 colon
HOP-92 NSCLC = test system: HOP-92 NSCLC
UACC-257 melanoma = test system: UACC-257 melanoma
COLO 205 colon = test system: COLO 205 colon
HCC-2998 colon = test system: HCC-2998 colon
KM12 colon = test system: KM12 colon
EKVX NSCLC = test system: EKVX NSCLC
NCI-H460 lung = test system: NCI-H460 lung
MALME-3M melanoma = test system: MALME-3M melanoma
SR leukemia = test system: SR leukemia
T-47D breast = test system: T-47D breast
K-562 leukemia = test system: K-562 leukemia
MCF7 breast = test system: MCF7 breast
LOX IMVI melanoma = test system: LOX IMVI melanoma

`O=C1NC(=NC23CC4CC(CC(C4)C2)C3)N/C1=C\c1ccc2ncccc2n1` was tested, and the GI50 (HL-60(TB) leukemia) was 565 nM, the TGI (HL-60(TB) leukemia) was 3670 nM and the GI50 (MOLT-4 leukemia) was 338 nM. For the same molecule, the TGI (MOLT-4 leukemia) was 2020 nM, the GI50 (BT-549 breast) was 163 nM and the TGI (BT-549 breast) was 687 nM. It also gave a GI50 (PC-3 prostate) of 334 nM, a TGI (PC-3 prostate) of 6230 nM and a GI50 (A549 NSCLC) of 398 nM. It also gave a TGI (A549 NSCLC) of 5120 nM, a GI50 (SF-268 CNS) of 608 nM and a TGI (SF-268 CNS) of 5630 nM. For the same molecule, the GI50 (SNB-19 CNS) was 261 nM, the TGI (SNB-19 CNS) was 4210 nM and the GI50 (M14 melanoma) was 352 nM. For the same molecule, the TGI (M14 melanoma) was 2930 nM, the GI50 (SK-MEL-5 melanoma) was 425 nM and the TGI (SK-MEL-5 melanoma) was 1850 nM. It also gave a GI50 (IGROV1 ovarian) of 257 nM, a TGI (IGROV1 ovarian) of 1410 nM and a GI50 (NCI-H522 lung) of 194 nM. It also gave a TGI (NCI-H522 lung) of 1130 nM, a GI50 (RXF 393 renal) of 239 nM and a TGI (RXF 393 renal) of 995 nM. It also gave a GI50 (OVCAR-3 ovarian) of 279 nM, a TGI (OVCAR-3 ovarian) of 1590 nM and a GI50 (MDA-MB-468 breast) of 201 nM. It also gave a TGI (MDA-MB-468 breast) of 781 nM, a GI50 (HOP-62 NSCLC) of 514 nM and a TGI (HOP-62 NSCLC) of 4540 nM. The GI50 (NCI/ADR-RES ovarian) was 1820 nM, the TGI (NCI/ADR-RES ovarian) was 7000 nM and the GI50 (UO-31 renal) was 233 nM. The TGI (UO-31 renal) was 1970 nM, the GI50 (SW-620 colon) was 425 nM and the TGI (SW-620 colon) was 6420 nM. It also gave a GI50 (MDA-MB-231 breast) of 557 nM, a TGI (MDA-MB-231 breast) of 4820 nM and a GI50 (OVCAR-5 ovarian) of 743 nM. It also gave a TGI (OVCAR-5 ovarian) of 5430 nM, a GI50 (A498 renal) of 175 nM and a TGI (A498 renal) of 902 nM. For the same molecule, the GI50 (NCI-H226 lung) was 597 nM, the TGI (NCI-H226 lung) was 5970 nM and the GI50 (TK-10 renal) was 328 nM. It also gave a TGI (TK-10 renal) of 6570 nM, a GI50 (SN12C renal) of 350 nM and a TGI (SN12C renal) of 4570 nM. The GI50 (CCRF-CEM leukemia) was 299 nM, the TGI (CCRF-CEM leukemia) was 3030 nM and the GI50 (SNB-75 CNS) was 91.3 nM. It also gave a TGI (SNB-75 CNS) of 755 nM, a GI50 (OVCAR-8 ovarian) of 632 nM and a TGI (OVCAR-8 ovarian) of 5730 nM. It also gave a GI50 (SK-MEL-2 melanoma) of 202 nM, a TGI (SK-MEL-2 melanoma) of 545 nM and a GI50 (786-0 renal) of 371 nM. The TGI (786-0 renal) was 2350 nM, the GI50 (OVCAR-4 ovarian) was 451 nM and the TGI (OVCAR-4 ovarian) was 3090 nM. It also gave a GI50 (HS 578T breast) of 222 nM, a TGI (HS 578T breast) of 1230 nM and a GI50 (RPMI-8226 leukemia) of 316 nM. The TGI (RPMI-8226 leukemia) was 1500 nM, the GI50 (HT29 colon) was 833 nM and the TGI (HT29 colon) was 3680 nM. It also gave a GI50 (SF-295 CNS) of 251 nM, a TGI (SF-295 CNS) of 4590 nM and a GI50 (SF-539 CNS) of 128 nM. For the same molecule, the TGI (SF-539 CNS) was 1110 nM, the GI50 (SK-MEL-28 melanoma) was 453 nM and the TGI (SK-MEL-28 melanoma) was 2910 nM. For the same molecule, the GI50 (SK-OV-3 ovarian) was 245 nM, the TGI (SK-OV-3 ovarian) was 1400 nM and the GI50 (MDA-MB-435) was 537 nM. The TGI (MDA-MB-435) was 5140 nM, the GI50 (NCI-H23 lung) was 283 nM and the TGI (NCI-H23 lung) was 1080 nM. It also gave a GI50 (UACC-62 melanoma) of 226 nM, a TGI (UACC-62 melanoma) of 739 nM and a GI50 (DU-145 prostate) of 462 nM. It also gave a TGI (DU-145 prostate) of 7590 nM, a GI50 (ACHN renal) of 305 nM and a TGI (ACHN renal) of 1900 nM. It also gave a GI50 (CAKI-1 renal) of 234 nM, a TGI (CAKI-1 renal) of 1200 nM and a GI50 (HCT-116 colon) of 250 nM. For the same molecule, the TGI (HCT-116 colon) was 3720 nM, the GI50 (U251 CNS) was 555 nM and the TGI (U251 CNS) was 11300 nM. For the same molecule, the GI50 (HCT-15 colon) was 389 nM, the TGI (HCT-15 colon) was 6880 nM and the GI50 (HOP-92 NSCLC) was 222 nM. For the same molecule, the TGI (HOP-92 NSCLC) was 1760 nM, the GI50 (UACC-257 melanoma) was 652 nM and the TGI (UACC-257 melanoma) was 5820 nM. For the same molecule, the GI50 (COLO 205 colon) was 319 nM, the TGI (COLO 205 colon) was 2940 nM and the GI50 (HCC-2998 colon) was 491 nM. It also gave a TGI (HCC-2998 colon) of 4450 nM, a GI50 (KM12 colon) of 683 nM and a TGI (KM12 colon) of 9840 nM. For the same molecule, the GI50 (EKVX NSCLC) was 321 nM, the TGI (EKVX NSCLC) was 2810 nM and the GI50 (NCI-H460 lung) was 510 nM. For the same molecule, the TGI (NCI-H460 lung) was 5280 nM, the GI50 (MALME-3M melanoma) was 147 nM and the TGI (MALME-3M melanoma) was 897 nM. For the same molecule, the GI50 (SR leukemia) was 224 nM, the TGI (SR leukemia) was 779 nM and the GI50 (T-47D breast) was 238 nM. For the same molecule, the TGI (T-47D breast) was 5380 nM, the GI50 (K-562 leukemia) was 546 nM and the TGI (K-562 leukemia) was greater than 33600 nM. For the same molecule, the GI50 (MCF7 breast) was 367 nM, the TGI (MCF7 breast) was 5840 nM and the GI50 (LOX IMVI melanoma) was 416 nM. It also gave a TGI (LOX IMVI melanoma) of 4780 nM.
